In patent publication US10472677B2, “Translational dysfunction based therapeutics” (Translational Therapeutics, Inc., priority 2005, dated 2019):

How the values were obtained:
cellular guanosine pools = conditions: read-out: EC50 depletion of cellular guanosine pools; cited from earlier work
[1] = test system: 4E mediated apoptotic rescue; assay: 4E mediated apoptotic rescue; format: cell-based; conditions: FIG. 37
liver metastatic disease = conditions: Jeney et al. 2006; cited from earlier work
eIF4E W56A = biological target: T1, eIF4E W56A (Mus musculus, UniProt P63073, W56A); assay: tryptophan fluorescence quenching titration, cap-binding site mutant; conditions: relative to wild-type eIF4E
T1 construct: made in house
Description: For fluorescence titrations, mouse eIF4E, which differs from human eIF4E by four nonconserved amino acids, was produced as described. For NMR spectroscopy, mouse eIF4E was expressed as a fusion with the B1 domain of protein G (G4E, kind gift of Gerhard Wagner, Harvard University, Cambridge, Mass.), in BL21 (DE-3) cells by induction with 0.8 mM isopropyl-β-D-thiogalactopyranoside at 18° C. for 20 h in M9 minimal media containing 1 g/l ^15NH4Cl as the sole nitrogen source (Cambridge Isotopes). […] Eluate was dialyzed extensively against 0.1 M NaCl/50 mM Na2PO4 (pH 6.5)/5 mM DTT at 4° C. to produce apo-G4E, as verified by using NMR spectroscopy and fluorescence titrations. […]
Fluorescence measurements were performed by using a home-built fluorimeter, as described. All titrations were performed in 0.3 M NaCl/10 mM Na2PO4 (pH 7.5)/1 μM zinc in 0.3×0.3 cm^2 fluorescence cuvette (Hellma), by using eIF4E concentration of 2 μM. […] Corrected relative fluorescence intensities were normalized, and fluorescence quenching curves were fit to a heuristic single-site-binding expression: I/I0=Kd^n/(x^n+Kd^n) where x is ligand concentration, Kd is the apparent dissociation constant, and n is the Hill coefficient.

[2] = test system: cyclin D1 protein in NIH 3T3 cells; assay: Western blot of total extracts of treated cells; format: cell-based, mouse
Description: Protein concentrations were determined by using bicinchoninic acid-copper reduction (Pierce) and 20-μg aliquots were resolved using SDS/PAGE, transferred to Immobilon-P membrane (Millipore), blocked, and probed by using primary antibodies against eIF4E (1:5000, Transduction Laboratories), cyclin D1 (1:500, Becton Dickinson), β-actin (1:5000, Sigma), c-myc (1:1000, Becton Dickinson), and Sc35 (1:5000, Santa Cruz Biotechnology). Bound antibodies were chemiluminescently detected by using horseradish peroxidase-conjugated secondary antibodies (Amersham Pharmacia) and SuperSignal West Pico reagent according to manufacturer's instructions (Pierce).

T1 sequence (P63073 whole entry W56A): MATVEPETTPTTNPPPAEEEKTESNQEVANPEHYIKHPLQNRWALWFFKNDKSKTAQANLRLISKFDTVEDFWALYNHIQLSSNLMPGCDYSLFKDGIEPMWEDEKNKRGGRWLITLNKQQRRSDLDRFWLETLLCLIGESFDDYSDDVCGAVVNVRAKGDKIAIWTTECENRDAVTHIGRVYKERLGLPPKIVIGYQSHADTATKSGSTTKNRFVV

Which EC50 (cellular guanosine pools) does the source give for `NC(=O)c1ncn([C@@H]2O[C@H](CO)[C@@H](O)[C@H]2O)n1` [Ribavirin, 1-β-D-ribofuranosyl-1,2,4-triazole-3-carboxamide] here?
Its EC50 is ~100 µM.

What about the “effect on 4E mediated apoptotic rescue” value [1] of the same compound?
Its value is “blocks”.

And the “effect on liver metastatic disease” value (liver metastatic disease)?
The value was “reduce liver metastatic disease”.

What about the “reduction of Ribavirin affinity by W56A mutation” value (eIF4E W56A) of the same compound?
Its value is 14 fold.

And the “levels of B-actin and eIF4E proteins” value [2]?
Its value is “not reduced”.

What about the EC50 ([2]; Mus musculus, NIH3T3, read-out: apparent EC50 reduction of cyclin D1 protein levels) of the same compound?
Its EC50 is 0.1 to 1 µM.
